Literature values in US20040180086A1 (priority 2002, published 2004).

System: decarboxylation of peripheral levodopa
Settings: carbidopa administered in combination with levodopa

C[C@@](Cc1ccc(O)c(O)c1)(NN)C(=O)O [Carbidopa, S-α-hydrazino-3,4-dihydroxy-α-methylbenzenepropanoic acid monohydrate]
reduction of the amount of levodopa required to produce a given response: about 75%
